Measurements from PMC9994261 (Cell, 2023).
Converted amounts (≈) assume the structure as drawn. Where two headings read alike, the source gives them in different places.

Legend:
Mtb ribosome = format: biochemical, Mycobacterium tuberculosis; conditions: read-out: Inhibition of Mtb translation (IC50 μM)
physchem [1] = assay: physchem
Mtb Erdman = assay: Mouse model of chronic TB; format: in vivo; conditions: 300 mg/kg oral once daily
[2] = pH 2, 50% acetonitrile/water
Mtb H37Rv [3] = assay: microbe, parasite or virus in culture; format: cell-based, Mycobacterium tuberculosis
RAW264.7 cells = format: in vitro ADME, murine; conditions: RAW macrophages, 10 μM
Method: RAW264.7 cells were allowed to adhere in 96 wells plates for 4 hours before compounds were added at 10 μM. Intracellular concentrations were measured by LC-MS/MS after cellular lysis. For each point, up to 4 hours, the Intra/Extra cellular ratio was calculated. Points are the mean ± SD of four tests. Clarithromycin and Azithromycin were used as references.

Mtb H37Rv LuxAB [4] = assay: microbe, parasite or virus in culture; format: cell-based; conditions: Mycobacterium tuberculosis
Mtb H37Rv [5] = assay: Mouse model of highly acute TB; format: in vivo
in vitro = in vitro ADME; conditions: human, Caco-2; read-out: Permeability in Caco2 cells (Papp)
Mtb H37Rv LuxAB [6] = assay: microbe, parasite or virus in culture; format: cell-based; conditions: Mycobacterium tuberculosis; remark: listed apart in the source
Mtb H37Rv [7] = format: cell-based, Mycobacterium tuberculosis; conditions: 7-day treatment
M. bovis BCG Pasteur = assay: microbe, parasite or virus in culture; format: cell-based, Mycobacterium bovis
[8] = format: in vitro ADME
[9] = format: in vitro ADME; remark: listed apart in the source
[10] = test system: GFP-expressing Mtb H37Rv in RAW264.7 macrophages; assay: Intramacrophage assay (MIC for Mtb in macrophages); format: cell-based, Mycobacterium tuberculosis; conditions: Mycobacterium tuberculosis, H37RV
physchem [11] = format: physicochemical
Mtb H37Rv [12] = assay: Combination study in mouse model of TB; format: in vivo; conditions: 4 weeks
Mtb H37Rv [13] = assay: MIC80 after overnight pre-incubation of Mtb with subinhibitory macrolide; format: cell-based; conditions: Mycobacterium tuberculosis, read-out: MIC80
Mtb H37Rv [14] = assay: Mouse model of acute TB; format: in vivo; conditions: 4 weeks
Mtb methylated ribosome = assay: Mtb in vitro translation assay with methylated (erythromycin-treated) ribosome; format: biochemical, Mycobacterium tuberculosis; conditions: read-out: Translation inhibition of Mtb methylated ribosome (IC50 μM)
[15] = format: in vitro ADME; remark: listed apart in the source
in vivo = conditions: male, Swiss, mouse, po; for AUC: oral 30 mg/kg
[16] = mouse po 10 mg/kg, PEG200/Tween80/Citrate Buffer 100mM pH4 (70/5/25)
[17] = mouse po 100 mg/kg, Lipidic formulation CremophorRH40/Capryol90/Mygliol812N (10/20/70) diluted in ½ water
[18] = mouse po 100 mg/kg, PEG200/Tween80/Citrate Buffer 100mM pH4 (70/5/25)
[19] = mouse po 300 mg/kg, PEG200/Tween80/Citrate Buffer 100mM pH4 (70/5/25)

SMILES: CON=C1CC(C)OC(OC2C(C)CC(C)(OC(=O)NC(C)(C)CNS(=O)(=O)c3ccccc3)C(=O)C(C)C(OC(=O)CC(C)C)C(C)C(C(C)COC3OC(C)C(O)C(OC)C3OC)OC(=O)C(C)C(OC3CC(C)N(C)CC(C)O3)C2C)C1O (stereo not drawn) [SEQ-9]
- IC50 (Mtb ribosome): 0.075 µM
- pKa (physchem [1]): 8.3
- log CFU reduction compared with pre-treatment CFU (Mtb Erdman): 1.7 log CFU
- Chemical stability: t/12@pH 2 [2]: 48 h
- MIC (Mtb H37Rv [3]; Mycobacterium tuberculosis, ERDMAN / H37Rv, H37Rv/Erdman, read-out: MIC (μM) for Mtb in liquid culture): 0.7 µM (≈ 0.87 µg/mL)
- MIC (Mtb H37Rv [3]; Mycobacterium tuberculosis, H37RV, read-out: MIC for Mtb in liquid culture): 0.7 µM (≈ 0.87 µg/mL)
- MIC (Mtb H37Rv [3]; read-out: MIC for Mtb in liquid culture): 0.70 µM (≈ 0.87 µg/mL)
- Intra-macrophage ratio (intra versus extracellular concentration) (RAW264.7 cells): ~60 fold
- MIC (Mtb H37Rv LuxAB [4]; read-out: MIC (μM) for Mtb in liquid culture + 25% human serum): 1.2 µM
- MIC (Mtb H37Rv LuxAB [4]; read-out: MIC (μM) for Mtb in liquid culture + 25% mouse serum): 2.1 µM
- Decrease in CFU (Mtb H37Rv [5]; 100 mg/kg, lipid-based formulation): 2 log10
- Reduction of mean lung CFU (Mtb H37Rv [5]; 300 mg/kg, after 2 weeks of treatment): 1.42 log10
- Minimum effective dose (MED) (Mtb H37Rv [5]; lipid-based formulation): 100 mg/kg
- Papp (in vitro): 1.5 ×10⁻⁶ cm/s
- MIC (Mtb H37Rv LuxAB [6]; read-out: MIC for Mtb under anaerobic conditions (LORA)): 0.6 µM (≈ 0.746 µg/mL)
- MBC (Mtb H37Rv LuxAB [6]; read-out: Minimal bactericidal concentration (MBC) for Mtb under anaerobic conditions (LORA)): 6.3 µM (≈ 7.83 µg/mL)
- log CFU reduction (in vitro bactericidal activity) (Mtb H37Rv [7]; 30 μM): 1.5 log CFU
- log CFU reduction (in vitro bactericidal activity) (Mtb H37Rv [7]; 60 μM): 2.5 log CFU
- Growth inhibition (MIC80) (M. bovis BCG Pasteur): 0.56 µM
- MIC80 (M. bovis BCG Pasteur; Mycobacterium tuberculosis variant bovis BCG, BCG, read-out: Growth inhibition (MIC80)): 0.32 µM (≈ 0.398 µg/mL)
- MIC (M. bovis BCG Pasteur; Mycobacterium tuberculosis variant bovis BCG, BCG, read-out: MIC in Pasteur M. bovis BCG): 0.32 µM (≈ 0.398 µg/mL)
- Metabolic stability in mouse liver microsomes (% metabolized compound after 20 min) [8]: 8%
- Metabolic degradation/clearance from human liver microsomes [9]: 0.03 mL/h/10^6 hepatocytes
- MIC ([10]; read-out: MIC (μM) for Mtb in macrophages): 0.15 µM (≈ 0.187 µg/mL)
- MIC ([10]; read-out: MIC for Mtb tuberculosis in macrophages): 0.11 µM (≈ 0.137 µg/mL)
- solubility (physchem [11]; MCT pH 7.4, read-out: Solubility: MCT@pH 7.4): 530 µg/mL (≈ 426 µM)
- solubility (physchem [11]; aqueous buffer, PBS pH 7.4, read-out: Solubility: PBS@pH 7.4): 51 µg/mL (≈ 41 µM)
- Additional reduction of lung CFU compared with B or Pa alone (Mtb H37Rv [12]; SEQ-9 300 mg/kg added to B or Pa): approximately 1 log10 CFU
- Additional reduction of lung CFU compared with L or Z alone (Mtb H37Rv [12]; SEQ-9 300 mg/kg added to L or Z): approximately 0.5 log units
- MIC80 (Mtb H37Rv [13]; Without induction): 1 µM (≈ 1.24 µg/mL)
- MIC80 (Mtb H37Rv [13]; overnight pre-incubation with SEQ-9 0.125µg/ml): 1 µM (≈ 1.24 µg/mL)
- MIC80 (Mtb H37Rv [13]; overnight pre-incubation with SEQ-9 0.25µg/ml): 1 µM (≈ 1.24 µg/mL)
- MIC80 (Mtb H37Rv [13]; overnight pre-incubation with clarithromycin 0.125µg/ml): 1 µM (≈ 1.24 µg/mL)
- MIC80 (Mtb H37Rv [13]; overnight pre-incubation with clarithromycin 0.25µg/ml): 1 µM (≈ 1.24 µg/mL)
- Survival of infected mice (Mtb H37Rv [14]; 37.5 to 300 mg/kg oral, 5 days per week, untreated controls died within 4 weeks): survived at all doses administered
- Minimum effective dose (MED), complete prevention of bacterial growth (Mtb H37Rv [14]; oral, methylcellulose-Tween formulation): 300 mg/kg
- IC50 (Mtb methylated ribosome): 0.064 µM
- Lung AUC0-24 [16]: 7.8 µg·h/mL
- Lung Cmax [16]: 0.79 µg/mL
- Lung AUC0-24 [17]: 440 µg·h/mL
- Lung Cmax [17]: 31.9 µg/mL
- Lung AUC0-24 [18]: 190 µg·h/mL
- Lung Cmax [18]: 32.9 µg/mL
- Lung AUC0-24 [19]: 840 µg·h/mL
- Lung Cmax [19]: 252 µg/mL
- Higher plasma AUC compared with SEQ-372 (same oral dose of 30 mg/kg in mouse): 6 fold
- Metabolic stability in rat liver microsomes (% metabolized compound after 20 min) [15]: 9%
- bioavailability (in vivo): 23%
- AUC(0-t) (in vivo; 10 mg/kg, pH 4): 1100 ng·h/mL
- Cmax (in vivo; 10 mg/kg, pH 4): 140 ng/mL
- half-life (in vivo; 10 mg/kg, pH 4, Lung t1/2, mouse po 10 mg/kg, PEG200/Tween80/Citrate Buffer 100mM pH4 (70/5/25)): 270 min
- half-life (in vivo; 10 mg/kg, pH 4, Plasma t1/2, mouse po 10 mg/kg, PEG200/Tween80/Citrate Buffer 100mM pH4 (70/5/25)): 180 min
- Kp (in vivo; 30 mg/kg): 19
- AUC (in vivo; 30 mg/kg, AUC in lung @30 mg/kg, lung): 120000 ng·h/mL
- AUC (in vivo; 30 mg/kg, AUC in plasma @30 mg/kg, plasma): 6300 ng·h/mL
- AUC(0-t) (in vivo; 100 mg/kg): 22000 ng·h/mL
- Cmax (in vivo; 100 mg/kg): 2130 ng/mL
- half-life (in vivo; 100 mg/kg, Lung t1/2, mouse po 100 mg/kg, Lipidic formulation CremophorRH40/Capryol90/Mygliol812N (10/20/70) diluted in ½ water): 270 min
- half-life (in vivo; 100 mg/kg, Plasma t1/2, mouse po 100 mg/kg, Lipidic formulation CremophorRH40/Capryol90/Mygliol812N (10/20/70) diluted in ½ water): 252 min
- AUC(0-t) (in vivo; 100 mg/kg, pH 4): 11000 ng·h/mL
- Cmax (in vivo; 100 mg/kg, pH 4): 1390 ng/mL
- half-life (in vivo; 100 mg/kg, pH 4, Lung t1/2, mouse po 100 mg/kg, PEG200/Tween80/Citrate Buffer 100mM pH4 (70/5/25)): 390 min
- half-life (in vivo; 100 mg/kg, pH 4, Plasma t1/2, mouse po 100 mg/kg, PEG200/Tween80/Citrate Buffer 100mM pH4 (70/5/25)): 264 min
- AUC(0-t) (in vivo; 300 mg/kg, pH 4): 21000 ng·h/mL
- Cmax (in vivo; 300 mg/kg, pH 4): 3110 ng/mL
- half-life (in vivo; 300 mg/kg, pH 4, Lung t1/2, mouse po 300 mg/kg, PEG200/Tween80/Citrate Buffer 100mM pH4 (70/5/25)): 660 min
